# Laboratory results: US20220151276A1, “COMPOSITION CONTAINING PLANT-DERIVED EXTRACT AND/OR PLANT-DERIVED PROCESSED PRODUCT” (OTSUKA PHARMACEUTICAL CO., LTD., priority 2019, published 2022)
# Test system: healthy adult males
# Assay: Incremental loading exercise test with bicycle
# Assay type: in vivo, human
# Method: For 25 healthy adult males, 3 dosages of kaempferol-containing cookie-shaped foods (containing 2.5 mg, 10 mg, or 25 mg of kaempferol, respectively) and a placebo cookie-shaped food (kaempferol-free) were used as test foods, and a once-a-day ingestion for consecutive 8 days were repeated four times by the crossover method. 3 hours after a test food ingestion on day 1 (Single ingestion) and on day 8 (Consecutive ingestion), an incremental loading exercise with bicycle was performed while sampling the exhaled gas to determine the oxygen consumption. The Heart rate and the rating of perceived exertion were monitored during exercise. Dynamic/kinetic visual acuity was measured before and after the exercise. Details of each endpoint are given below. Oxygen consumption (VO2) (mL/min/kg) was calculated from the difference between the amount of oxygen in the inhaled gas (atmosphere) and the amount of oxygen in the exhaled gas. When a weight of the pedal approaches a subject's limit during incremental loading exercise with bicycle, a heart rate (HR) is maximized. The increase in heart rate from the resting heart rate to the maximum heart rate was defined as 100% of exercise intensity, and the oxygen consumption (VO2) was plotted at each exercise intensity. That is, for example, an exercise intensity of 50% HR is calculated by the following equation: 100×(x−Resting heart rate)/(Maximum heart rate−Resting heart rate)=50% HR, and the oxygen consumption (VO2) in which the heart rate is the “x” means “oxygen consumption (VO2) at an exercise intensity of 50% HR”. Oxygen consumption efficiency was calculated by the following equation. Oxygen consumption efficiency (VO2/VE)=oxygen consumption/ventilation The oxygen uptake efficiency slope (OUES) was calculated using the ventilation and VO2 every 1 min from the beginning of the incremental loading exercise. Specifically, a graph of linearity was obtained by plotting “logarithmic value of ventilation (VE)” on the horizontal axis and “VO2” on the vertical axis, and the slope of the linear function graph was defined as OUES. For details, see Non-Patent Document 5. Exercise intensity (% HR) and rating of perceived exertion (RPE) at the oxygen consumption (VO2) of 14 mL/min/kg and 24.5 mL/min/kg in incremental loading exercise (the levels of stair climbing and jogging, respectively) were evaluated. The calculation methods for oxygen consumption (VO2) and exercise intensity (% HR) are the same as those described above. The perceived exertion was rated by the subject according to the following table at 1-minute intervals from the beginning of the incremental loading exercise, and the scales rated by each subject were averaged to give the rating of perceived exertion (RPE).
# [1] = single and consecutive ingestion, at VO2 of 14 mL/min/kg (stair climbing) and 24.5 mL/min/kg (jogging), compared with no intake of kaempferol
# [2] = single and consecutive ingestion, incremental loading exercise, compared with no intake of kaempferol
compound,measurement,setting,value
O=c1c(O)c(-c2ccc(O)cc2)oc2cc(O)cc(O)c12 [kaempferol],oxygen consumption efficiency (VO2/VE),"single and consecutive ingestion, after initiation of incremental loading exercise, compared with no intake of kaempferol",increased oxygen consumption efficiency
same,exercise intensity (% HR) at given oxygen consumption,[1],decreased exercise intensity
same,rating of perceived exertion (RPE),[1],decreased rating of perceived exertion
same,maximum exercise load (Pedal Weight (watt)),[2],increased maximum exercise load
same,maximum oxygen consumption (VO2peak),[2],increased maximum oxygen consumption
same,oxygen uptake efficiency slope (OUES),[2],increased oxygen uptake efficiency slope
same,oxygen consumption (VO2) at each exercise intensity,"single ingestion (day 1) and consecutive ingestion (day 8), 3 hours after ingestion, exercise intensities 50-100% HR, compared with no intake of kaempferol (placebo)",increased oxygen consumption at all exercise intensities
